Laboratory results taken from patent US10464947B2 (Incyte Corporation, priority 2013, dated 2019).
Counter-ions that a name gives are not always drawn.

Each compound was assayed on KMS.12.BM cells (assay: KMS.12.BM Cell Viability Assay (Example B1)). Settings: Homo sapiens, 72 h, 3 days, Cell Titer-GLO, read-out: KMS cellular IC50.
Assay type: cell-based, human
In short: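 KMS.12.BM human myeloma cells, 5000 cells/well in RPMI with 10% FBS, exposed to a compound concentration range for 3 days. Viable cells measured by ATP-based Cell Titer-GLO luminescence after 10 min at room temperature.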

| SMILES | IC50 |
| --- | --- |
| Cc1noc(C)c1-c1ccc2nc(N3CC[C@@H](NC(=O)C4CC4)C3)n3c2c1OC[C@@H]3c1ccccn1 [Example 206, N-{(3R)-1-[(4S)-7-(3,5-dimethylisoxazol-4-yl)-4-pyridin-2-yl-4,5-dihydroimidazo[1,5,4-de][1,4]benzoxazin-2-yl]pyrrolidin-3-yl}cyclopropanecarboxamide] | < 1000 nM |
| Cc1noc(C)c1-c1ccc2[nH]c(=O)n3c2c1OCC3C1CCCCC1 (stereo not shown) [Example 17, 4-Cyclohexyl-7-(3,5-dimethylisoxazol-4-yl)-4,5-dihydroimidazo[1,5,4-de][1,4]benzoxazin-2(1H)-one] | < 1000 nM |
| Cn1nccc1-c1ccc2[nH]c(=O)n3c2c1OCC3c1ccccc1 (stereo not shown) [Example 35, 7-(1-Methyl-1H-pyrazol-5-yl)-4-phenyl-4,5-dihydroimidazo[1,5,4-de][1,4]benzoxazin-2(1H)-one] | < 1000 nM |
| CN[C@H]1CCN(c2nc3ccc(-c4c(C)noc4C)c4c3n2[C@@H](c2ccccn2)CO4)C1 [Example 181B, (3S)-1-[(4S)-7-(3,5-dimethylisoxazol-4-yl)-4-pyridin-2-yl-4,5-dihydroimidazo[1,5,4-de][1,4]benzoxazin-2-yl]-N-methylpyrrolidin-3-amine] | < 1000 nM |
| Cc1noc(C)c1-c1ccc2nc(N3CC[C@H](N(C)C)C3)n3c2c1OC[C@@H]3c1ccccn1 [Example 180B, (3S)-1-[(4S)-7-(3,5-dimethylisoxazol-4-yl)-4-pyridin-2-yl-4,5-dihydroimidazo[1,5,4-de][1,4]benzoxazin-2-yl]-N,N-dimethylpyrrolidin-3-amine] | < 1000 nM |
| Cc1noc(C)c1-c1ccc2nc(N3CC(NS(=O)(=O)C(C)C)C3)n3c2c1OC[C@@H]3c1ccccn1 [Example 239, N-{1-[(4S)-7-(3,5-dimethylisoxazol-4-yl)-4-pyridin-2-yl-4,5-dihydroimidazo[1,5,4-de][1,4]benzoxazin-2-yl]azetidin-3-yl}propane-2-sulfonamide] | < 1000 nM |
| CCS(=O)(=O)NC1CN(c2nc3ccc(-c4c(C)noc4C)c4c3n2[C@@H](c2ccccn2)CO4)C1 [Example 238, N-{1-[(4S)-7-(3,5-dimethylisoxazol-4-yl)-4-pyridin-2-yl-4,5-dihydroimidazo[1,5,4-de][1,4]benzoxazin-2-yl]azetidin-3-yl}ethanesulfonamide] | < 1000 nM |
| COn1c(=O)n2c3c(c(-c4c(C)noc4C)ccc31)CCC2c1ccccn1 (stereo not shown) [Example 122, 7-(3,5-Dimethylisoxazol-4-yl)-1-methoxy-4-pyridin-2-yl-5,6-dihydro-4H-imidazo[4,5,1-ij]quinolin-2(1H)-one trifluoroacetate] | < 1000 nM |
| CC(=O)N[C@@H]1CCN(c2nc3ccc(-c4c(C)noc4C)c4c3n2[C@@H](c2ccccn2)CO4)C1 [Example 201A, N-{(3R)-1-[(4S)-7-(3,5-dimethylisoxazol-4-yl)-4-pyridin-2-yl-4,5-dihydroimidazo[1,5,4-de][1,4]benzoxazin-2-yl]pyrrolidin-3-yl}acetamide] | < 1000 nM |
| Cc1noc(C)c1-c1cc(-c2ccccc2)c2[nH]c(=O)n3c2c1OCC3c1ccccc1 (stereo not shown) [Example 43, 7-(3,5-Dimethylisoxazol-4-yl)-4,9-diphenyl-4,5-dihydroimidazo[1,5,4-de][1,4]benzoxazin-2(1H)-one] | < 1000 nM |
| Cc1noc(C)c1-c1ccc2[nH]c(=O)n3c2c1OCC3c1ccccc1OCC(=O)N(C)C (stereo not shown) [Example 51, 2-{2-[7-(3,5-Dimethylisoxazol-4-yl)-2-oxo-1,2,4,5-tetrahydroimidazo[1,5,4-de][1,4]benzoxazin-4-yl]phenoxy}-N,N-dimethylacetamide] | < 1000 nM |
| Cc1noc(C)c1-c1ccc2nc(N3CC(O)C3)n3c2c1OC[C@@H]3c1ccccn1 [Example 165, 1-[(4S)-7-(3,5-dimethylisoxazol-4-yl)-4-pyridin-2-yl-4,5-dihydroimidazo[1,5,4-de][1,4]benzoxazin-2-yl]azetidin-3-ol] | < 1000 nM |
| Cc1noc(C)c1-c1ccc2nc(N3CC[C@@H](NS(=O)(=O)C(C)C)C3)n3c2c1OC[C@@H]3c1ccccn1 [Example 217, N-{(3R)-1-[(4S)-7-(3,5-dimethylisoxazol-4-yl)-4-pyridin-2-yl-4,5-dihydroimidazo[1,5,4-de][1,4]benzoxazin-2-yl]pyrrolidin-3-yl}propane-2-sulfonamide] | < 1000 nM |
| Cc1noc(C)c1-c1ccc2nc(C(=O)N(C)C)n3c2c1OC[C@@H]3c1ccccn1 [Example 91, (4S)-7-(3,5-Dimethylisoxazol-4-yl)-N,N-dimethyl-4-pyridin-2-yl-4,5-dihydroimidazo[1,5,4-de][1,4]benzoxazine-2-carboxamide] | < 1000 nM |
| Cc1noc(C)c1-c1ccc2nc(N3CCN(C(C)C)CC3)n3c2c1OC[C@@H]3c1ccccn1 [Example 174, (4S)-7-(3,5-dimethylisoxazol-4-yl)-2-(4-isopropylpiperazin-1-yl)-4-pyridin-2-yl-4,5-dihydroimidazo[1,5,4-de][1,4]benzoxazine] | < 1000 nM |
| Cc1noc(C)c1-c1ccc2nc(N3CCC(C)(O)CC3)n3c2c1OC[C@@H]3c1ccccn1 [Example 194, 1-[(4S)-7-(3,5-dimethylisoxazol-4-yl)-4-pyridin-2-yl-4,5-dihydroimidazo[1,5,4-de][1,4]benzoxazin-2-yl]-4-methylpiperidin-4-ol] | < 1000 nM |
| Cc1noc(C)c1-c1ccc2nc(C3=CCN(C(=O)OC(C)(C)C)CC3)n3c2c1OC[C@@H]3c1ccccn1 [Example 97, tert-Butyl 4-[(4S)-7-(3,5-dimethylisoxazol-4-yl)-4-pyridin-2-yl-4,5-dihydroimidazo[1,5,4-de][1,4]benzoxazin-2-yl]-3,6-dihydropyridine-1 (2H)-carboxylate] | < 1000 nM |
| COc1ccc(CNCc2cc(-c3c(C)noc3C)c3c4c2[nH]c(=O)n4C(c2ccccn2)CO3)cc1 (stereo not shown) [Example 263, 7-(3,5-dimethylisoxazol-4-yl)-9-{[(4-methoxybenzyl)amino]methyl}-4-pyridin-2-yl-4,5-dihydroimidazo[1,5,4-de][1,4]benzoxazin-2(1H)-one] | < 1000 nM |
| Cc1noc(C)c1-c1ccc2nc(N3CC[C@@H](C(=O)NC4CC4)C3)n3c2c1OC[C@@H]3c1ccccn1 [Example 251, (3R)-N-cyclopropyl-1-[(4S)-7-(3,5-dimethylisoxazol-4-yl)-4-pyridin-2-yl-4,5-dihydroimidazo[1,5,4-de][1,4]benzoxazin-2-yl]pyrrolidine-3-carboxamide] | < 1000 nM |
| Cc1noc(C)c1-c1ccc2nc(C3CCNCC3)n3c2c1OC[C@@H]3c1ccccn1 [Example 103] | < 1000 nM |

Same assay, conditions: Homo sapiens, KMS-12-BM, 72 h, 3 days, Cell Titer-GLO, read-out: KMS cellular IC50

| SMILES | IC50 |
| --- | --- |
| Cc1noc(C)c1-c1ccc2[nH]c(=O)n3c2c1OC(C(=O)N(C)C)C3c1ccccc1 (single isomer, unassigned) [Example 47B, 7-(3,5-Dimethylisoxazol-4-yl)-N,N-dimethyl-2-oxo-4-phenyl-1,2,4,5-tetrahydroimidazo[1,5,4-de][1,4]benzoxazine-5-carboxamide] | 1000 to 10000 nM |
| Cc1noc(C)c1-c1ccc2c3c1CCC(c1ccccc1)n3c(=O)n2C (racemic) [Example 121, 7-(3,5-Dimethylisoxazol-4-yl)-1-methyl-4-phenyl-5,6-dihydro-4H-imidazo[4,5,1-ij]quinolin-2(1H)-one] | < 1000 nM |
